In patent US7910559B2, “Decladinosyl-macrolides with anti-inflammatory activity” (GlaxoSmithKline istrazivacki centar Zagreb d.o.o., priority 2005, dated 2011):
Read-outs that look alike come from different tables or passages of the source.

How the values were obtained:
Assay type in all cases: cell-based
[1] = test system: human TNF-α; test: Inhibition of TNF-α production by stimulated human peripheral blood leukocytes in vitro (ELISA); details: Homo sapiens, Leukocyte, PBL, read-out: Percentage of inhibition of TNF-α production; for inhibition at 10 µM: compound 10 μM; for inhibition at 50 µM: compound 50 μM
Outline: (§1)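 Human PBL from healthy donors preincubated 2 h at 37 °C with compound, then stimulated overnight with 2 μg/mL LPS, 1 μg/mL PMA or 120 μg/mL zymosan. Supernatant cytokines measured by sandwich ELISA. % inhibition is relative to stimulated, untreated cells.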

[2] = test system: human IL-1β; test: Inhibition of IL-1β production by stimulated human peripheral blood leukocytes in vitro (ELISA); details: Homo sapiens, Leukocyte, PBL, read-out: Percentage of inhibition of IL-1β production; for inhibition at 10 µM: compound 10 μM; for inhibition at 50 µM: compound 50 μM
Outline: as §1

[3] = test system: human IL-6; test: Inhibition of IL-6 production by stimulated human peripheral blood leukocytes in vitro (ELISA); details: Homo sapiens, Leukocyte, PBL, read-out: Percentage of inhibition of IL-6 production; for inhibition at 10 µM: compound 10 μM; for inhibition at 50 µM: compound 50 μM
Outline: as §1

[4] = test system: human IL-8; test: Inhibition of IL-8 production by stimulated human peripheral blood leukocytes in vitro (ELISA); details: Homo sapiens, Leukocyte, PBL, read-out: Percentage of inhibition of IL-8 production; for inhibition at 10 µM: compound 10 μM; for inhibition at 50 µM: compound 50 μM
Outline: as §1

[5] = test system: human peripheral blood mononuclear cells (PBMC); test: Human peripheral blood mononuclear cell proliferation in vitro ((3H)thymidine incorporation); details: Homo sapiens, PBMC, read-out: Percentage of inhibition of proliferation of stimulated PBMC; for inhibition at 10 µM: compound 10 μM; for inhibition at 50 µM: compound 50 μM
Method: Substances, used in in vitro experiments, were dissolved in dimethyl sulfoxide (DMSO) (Kemika, Croatia) at concentrations of 50 mM and 10 mM and were further diluted to the final concentrations of […] in 1 mL Dulbecco's modified Eagle medium (DMEM) supplemented with 1% heat inactivated fetal bovine serum (FBS), 1% glutamax, 50 U/ml penicillin, 50 μg/ml streptomycin and 2.5 μg/mL Fungizone (amphotericin B). Media and all media supplements were purchased from Gibco, Australia, except FBS that was from Sigma, USA.
Heparinized peripheral blood was obtained from healthy donors, and peripheral blood mononuclear cells (PBMC) were isolated by Histopaque 1077 (Sigma, USA) density centrifugation at 400 g for 30 minutes. Collected PBMC were centrifuged in plasma at 400 g/10 min, resuspended and washed in RPMI 1640 (Institute of Immunology, Croatia) by centrifugation.
Influence of substances at two different concentrations (50 μM and 10 μM) on proliferation of human peripheral blood mononuclear cells (PBMC) was assessed.
Heparinized peripheral blood was obtained from healthy donors, and PBMC were isolated by Histopaque 1077 (Sigma, USA) density centrifugation at 400 g for 30 minutes. 5×10^4 cells/well were cultured for 3 days in the RPMI medium as described above, in the presence (positive control) or absence (negative control) of stimulators [PHA (2.5 μg/mL) (Sigma, USA) or both PMA (10 ng/mL) (Sigma, USA) and ionomycin (500 ng/mL) (Calbiochem, USA)] and tested substances at 37° C. in 5% CO2 and 90% humidity. The cells were pulsed with 1 μCi of (^3H)thymidine (Amersham, USA) per well during the last 18 h of the cultures and were harvested on a 96-well filter (Packard Bioscience, USA) with a multiple cell harvester (Packard, USA). The incorporation of (^3H)thymidine in activated cells was measured by TopCount NXT (Packard, USA).
Inhibition of cell proliferation (as a percentage) was calculated using the following formula: % inhibition=(1−(^3H)thymidine incorporation expressed in counts per minute (cpm) in sample/(3H)thymidine incorporation expressed in cpm in positive control)×100 where “positive control” refers to stimulated samples not treated with substances.

[6] = test system: A549; details: human, 24 h
Outline: (§2)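 MTT cytotoxicity read-out: cells were exposed to compound at 50 μM and 12.5 μM for 24 hours at 37° C in RPMI, then MTT was added for 0.5-2 hours. Formazan absorbance at 490 nm gave the percentage of viable cells relative to untreated cells.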

[7] = test system: Hep G2; details: human, 24 h
Outline: as §2

[8] = test system: THP-1; details: human, 24 h
Outline: as §2

SMILES: CC[C@H]1OC(=O)[C@H](C)[C@@H](O[C@H]2C[C@@](C)(OC)[C@@H](O)[C@H](C)O2)[C@H](C)[C@@H](O[C@@H]2O[C@H](C)C[C@H](N(C)C)[C@H]2O)[C@](C)(OC)C[C@@H](C)C(=O)[C@H](C)[C@@H](O)[C@]1(C)O [clarithromycin, reference compound]
- inhibition at 10 µM ([1]; LPS stimulation): 0%
- inhibition at 50 µM ([1]; LPS stimulation): 0%
- inhibition at 10 µM ([1]; PMA stimulation): 0%
- inhibition at 50 µM ([1]; PMA stimulation): 0%
- inhibition at 10 µM ([1]; zymosan stimulation): 0%
- inhibition at 50 µM ([1]; zymosan stimulation): 0%
- inhibition at 10 µM ([2]; LPS stimulation): 0%
- inhibition at 50 µM ([2]; LPS stimulation): 0%
- inhibition at 10 µM ([2]; PMA stimulation): 26%
- inhibition at 50 µM ([2]; PMA stimulation): 33%
- inhibition at 10 µM ([2]; zymosan stimulation): 36%
- inhibition at 50 µM ([2]; zymosan stimulation): 59%
- inhibition at 10 µM ([3]; LPS stimulation): 11%
- inhibition at 50 µM ([3]; LPS stimulation): 0%
- inhibition at 10 µM ([3]; PMA stimulation): 0%
- inhibition at 50 µM ([3]; PMA stimulation): 0%
- inhibition at 10 µM ([3]; zymosan stimulation): 28%
- inhibition at 50 µM ([3]; zymosan stimulation): 0%
- inhibition at 10 µM ([4]; LPS stimulation): 23%
- inhibition at 50 µM ([4]; LPS stimulation): 0%
- inhibition at 10 µM ([4]; PMA stimulation): 33%
- inhibition at 50 µM ([4]; PMA stimulation): 0%
- inhibition at 10 µM ([4]; zymosan stimulation): 0%
- inhibition at 50 µM ([4]; zymosan stimulation): 0%
- inhibition at 10 µM ([5]; PHA stimulation): 0%
- inhibition at 50 µM ([5]; PHA stimulation): 7%
- inhibition at 10 µM ([5]; PMA + ionomycin stimulation): 9%
- inhibition at 50 µM ([5]; PMA + ionomycin stimulation): 14%
- Percentage of viable cells after treatment ([6]; 12.5 μM): 100%
- Percentage of viable cells after treatment ([6]; 50 μM): 100%
- Percentage of viable cells after treatment ([7]; 12.5 μM): 100%
- Percentage of viable cells after treatment ([7]; 50 μM): 100%
- Percentage of viable cells after treatment ([8]; 12.5 μM): 100%
- Percentage of viable cells after treatment ([8]; 50 μM): >95%
